Results: patent US20200270309A1, “MALEIMIDE GROUP-MODIFIED ANGIOGENESIS INHIBITOR HM-1 AND USE THEREOF” (NANJING ANJI BIOLOGICAL TECHNOLOGY CO., LTD, priority 2017, published 2020)
Marks after values point to notes of the source that are not given here. Peptide text beside a SMILES is read from it. * marks the point of attachment. X58 = O=C1C=CC(=O)N1c1cccc(CCCCCCCCCCCC(=O)*)c1; X66 = O=C1C=CC(=O)N1c1cccc(CCCCCCCC(=O)*)c1; X75 = O=C1C=CC(=O)N1c1cccc(CC(=O)*)c1

Key:
[1] = tested on: retinal neovascularization (OIR model); assay: Retinal vessels in OIR mice; type: in vivo, C57/B16 mice; conditions: for Area of neovascular plexus (mm^2): dose 0.05 μM in the vitreous chamber on day 13, retinal vessels evaluated on day 17; for Inhibition rate (%): dose 0.05 μM in the vitreous chamber on day 13, retinal vessels evaluated on day 17, vs negative control
Source text: Establishment of an OIR model: Young mice and their mothers were exposed in a 75% hyperoxic environment from day 7 to day 12 after the birth of C57/B16 mice, which caused capillaries in their central retina to disappear rapidly. The mice were returned to the indoor air on day 12, retinal vessels exposed to hyperoxia quickly disappeared, causing extensive abnormal neoangiogenesis, and the central part of the retina remained largely avascular for a long time. After the blood vessels disappeared completely, the mice were injected with normal saline (a negative group), X1-X12, X13-X44, X45-X90 in the vitreous chamber on day 13 respectively, and retinal vessels were evaluated on day 17 ([…] of Texas red labeled tomato agglutinin was injected into the left ventricle to mark unclosed vessels and circulated for 5 min).

[2] = tested on: collagen-induced arthritis; assay: Mouse collagen-induced arthritis (CIA) animal model; type: in vivo; conditions: DBA/1 mice CIA model, dose 4.0 mg/kg, subcutaneous from day 30, n=10; for Clinical score: highest score 16
[3] = tested on: xylene-induced ear swelling; assay: Xylene-induced mouse ear swelling; type: in vivo; conditions: Kunming mice, injected once a day for 5 days; for Swelling degree / Swelling degree (mg): right minus left ear piece weight 2 h after xylene; for Inhibition rate (%): xylene-induced ear swelling
Outline: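 Kunming mice dosed by injection once daily for 5 days; 1 h after last dose, 0.05 mL xylene applied to right ear, left ear untreated. Mice killed 2 h later; punched ear pieces weighed. Swelling degree = right minus left ear weight; swelling rate = swelling degree/left ear weight ×100%.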

[4] = tested on: retinal vascular endothelial nuclei; assay: Neovascularization in a rat model of premature retinopathy; type: in vivo, rats; conditions: dose 0.05 μM in the vitreous chamber from day 7 of modeling for one week; counted on day 14; oxygen-induced neonatal rats
Experimental: Using a fluctuating oxygen-induced animal model, newborn rats born naturally on the same day (within 12 h) were randomly divide into three groups: an oxygen model group, an oxygen treatment group and a normal control group. The oxygen model was further divided into three sub-group model groups, and the sub-group model groups and the treatment group were all placed in a semi-closed oxygen chamber made of organic glass; medical oxygen was introduced into the chamber, and the concentration was adjusted to 80%±2% by an oxygen meter; nitrogen was introduced into the oxygen chamber after 24 h, and the oxygen concentration was adjusted to 10%±2% rapidly and maintained for 24 h. This was repeated to keep the oxygen concentration in the oxygen chamber alternating between 80% and 10% every 24 h, the oxygen concentration was maintained for 7 d, and then the rats were fed in the air. The oxygen concentration was monitored 8 times a day, and the ambient temperature in the chamber was controlled at 23° C.±2° C. Bedding was replaced, feed was added, and water and mother rats were replaced once. The normal control group was placed in the animal room feeding environment. […] The oxygen treatment group was divided into three subgroups. On day 7 of modeling, X1-[…], […]-[…] and […]-X90 were injected in the vitreous chamber respectively, and the oxygen model group and the control group were only given normal saline for one week. On day 14, after the rats were anesthetized by diethyl ether and killed, eyeballs were extracted and fixed in 40 g/L paraformaldehyde solution for 24 h. Gradient dehydration by alcohol was performed, and the eyeballs were processed by xylene to be transparent. After waxing, the eyeballs were sectioned continuously to a thickness of 4μm, and the periphery of the optic disc should be avoided as much as possible. The sections were parallel to the sagittal plane from cornea to the optic disc. Ten sections of each eyeball were randomly taken and stained with hematoxylin eosin, the number of vascular endothelial nuclei that broke through the inner limiting membrane of the retina (only the number of vascular endothelial nuclei closely related to the inner limiting membrane were counted) was counted, and statistics of the average number of cells per section per eyeball was performed. Results: In the control group, there were no vascular endothelial nuclei that broke through the inner limiting membrane of the retina and grew into vitreous body, or the vascular endothelial nuclei were occasionally found in only a few sections. In the model group, there were many vascular endothelial nuclei that broke through the inner limiting membrane of the retina, some appeared alone, and some appeared in clusters. At the same time, on some sections, these vascular endothelial nuclei were also found adjacent to deep retinal vessels, confirming that they originated from the retina rather than the vitreous body or other ocular tissues. In the treatment group, only a few vascular endothelial nuclei that broke through the inner limiting membrane of retina could be seen in the sections.

HUVECs = assay: Transwell migration inhibition on HUVECs; type: cell-based, human; conditions: for Inhibition rate (%): HUVEC migration vs blank control; for Cell migration number (Mean ± SD): HUVECs, transwell, 24 h
[5] = tested on: IL-1β production by mouse peritoneal macrophages; assay: IL-1β production by mouse peritoneal macrophages (ELISA); type: cell-based; conditions: for Inhibition rate: IL-1β production, vs model group; for IL-1β: mouse peritoneal macrophages, 48 h, ELISA
Outline: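 Starch-elicited (6%, i.p.) mouse peritoneal macrophages, 2×10^6 cells/mL in RPMI 1640, adhered 3 h; non-adherent cells washed off. Polypeptides added at low, medium and high concentrations, Dex as positive control; cultured 48 h, supernatant IL-1β measured.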

[6] = Half-lives and pharmacokinetic parameters of polypeptides vs HM-1; conditions: in vivo; for half-life: T1/2β (half-life)

Compound | Area of neovascular plexus (mm^2) [1] [mm^2] | Inhibition rate (%) [1] [%**] | Joint swelling degree (mm) [2] [mm] | Left and right paw swelling degree (mm) [2] [mm] | Clinical score [2] | Swelling degree (mg) ([3]; dose 4 mg/kg) | Inhibition rate (%) ([3]; dose 4 mg/kg) | Swelling degree (mg) ([3]; dose 8 mg/kg) | Inhibition rate (%) ([3]; dose 8 mg/kg) | Nuclei count (retinal vascular endothelial nuclei, average per section per eyeball) [4] | Inhibition rate (%) (HUVECs; dose 0.05 μM) | Inhibition rate (%) (HUVECs; dose 0.1 μM) | Inhibition rate (%) (HUVECs; dose 0.2 μM) | Cell migration number (Mean ± SD) (HUVECs; dose 0.05 μM) | Cell migration number (Mean ± SD) (HUVECs; dose 0.1 μM) | Cell migration number (Mean ± SD) (HUVECs; dose 0.2 μM) | Inhibition rate ([5]; dose 0.05 μM) [%] | IL-1β ([5]; dose 0.05 μM) [pg/mL] | Inhibition rate ([5]; dose 0.1 μM) [%] | IL-1β ([5]; dose 0.1 μM) [pg/mL] | further results
C[C@H](NC(=O)CNC(=O)[C@H](CCCNC(=N)N)NC(=O)CCCCCCCCCCCc1cccc(N2C(=O)C=CC2=O)c1)C(=O)N[C@@H](CC(=O)O)C(=O)N[C@@H](CCCNC(=N)N)C(=O)N[C@@H](C)C(=O)NCC(=O)NCC(=O)NCC(=O)NCC(=O)N[C@@H](CCCNC(=N)N)C(=O)NCC(=O)N[C@@H](CC(=O)O)C(=O)O [X35] (X58-RGADRAGGGGRGD-OH) | 0.101 ± 0.005 | 52.36 | 0.76 ± 0.13 | 0.85 ± 0.14 | 8.78 ± 1.23 | 4.78 ± 0.64* mg | 23.27 | 3.48 ± 0.28** mg | 44.14 | 8.544 ± 3.087 | 42.61 | 50.57 | 56.96 | 615.18 ± 57.71 | 529.83 ± 68.02 | 461.34 ± 66.82 | 23.62 | 718.81 ± 11.53 | 30.79 | 651.42 ± 15.51 | Swelling degree ([3]; dose 2 mg/kg): 5.59 ± 0.91 mg; Inhibition rate (%) ([3]; dose 2 mg/kg): 10.27%; Inhibition rate ([5]; dose 0.2 μM): 34.61%; IL-1β ([5]; dose 0.2 μM): 615.43 ± 17.18 pg/mL; AUC(0-inf) [6]: 32000 ± 8090 ng·h/mL; MRT inf [6]: 57.1 ± 14.2 h; clearance [6]: 0.522 mL/min/kg; half-life [6]: 39.6 ± 0.31 h
C[C@H](NC(=O)CNC(=O)[C@H](CCCNC(=N)N)NC(=O)Cc1cccc(N2C(=O)C=CC2=O)c1)C(=O)N[C@@H](CC(=O)O)C(=O)N[C@@H](CCCNC(=N)N)C(=O)N[C@@H](C)C(=O)NCC(=O)NCC(=O)NCC(=O)NCC(=O)N[C@@H](CCCNC(=N)N)C(=O)NCC(=O)N[C@@H](CC(=O)O)C(=O)O [X25] (X75-RGADRAGGGGRGD-OH) | 0.096 ± 0.012 | 54.72 | 0.71 ± 0.18 | 0.74 ± 0.14 | 9.21 ± 1.33 | 4.45 ± 0.20* mg | 28.57 | 3.3 ± 0.06** mg | 47.03 | 8.923 ± 1.954 | 48.06 | 52.24 | 58.00 | 556.73 ± 40.91 | 511.9 ± 68.58 | 450.13 ± 52.7 | 20.57 | 747.54 ± 18.25 | 24.22 | 713.21 ± 19.17 | Swelling degree ([3]; dose 2 mg/kg): 5.62 ± 0.64 mg; Inhibition rate (%) ([3]; dose 2 mg/kg): 9.79%; Inhibition rate ([5]; dose 0.2 μM): 29.89%; IL-1β ([5]; dose 0.2 μM): 659.86 ± 10.24 pg/mL; AUC(0-inf) [6]: 24600 ± 7530 ng·h/mL; MRT inf [6]: 44.1 ± 10.7 h; clearance [6]: 0.677 mL/min/kg; half-life [6]: 30.6 ± 0.32 h
C[C@H](NC(=O)CNC(=O)[C@H](CCCNC(=N)N)NC(=O)CCCCCCCc1cccc(N2C(=O)C=CC2=O)c1)C(=O)N[C@@H](CC(=O)O)C(=O)N[C@@H](CCCNC(=N)N)C(=O)N[C@@H](C)C(=O)NCC(=O)NCC(=O)NCC(=O)NCC(=O)N[C@@H](CCCNC(=N)N)C(=O)NCC(=O)N[C@@H](CC(=O)O)C(=O)O [X31] (X66-RGADRAGGGGRGD-OH) | 0.101 ± 0.013 | 52.83 | 0.78 ± 0.15 | 0.77 ± 0.15 | 8.75 ± 1.38 | 4.22 ± 0.51** mg | 32.26 | 5.18 ± 0.71** mg | 49.28 | 7.228 ± 3.184 | 40.18 | 46.67 | 55.21 | 641.17 ± 61.85 | 571.62 ± 42.83 | 480.05 ± 67.72 | 15.28 | 797.34 ± 10.46 | 18.74 | 764.81 ± 19.08 | Inhibition rate ([5]; dose 0.2 μM): 23.12%; IL-1β ([5]; dose 0.2 μM): 723.57 ± 18.58 pg/mL; AUC(0-inf) [6]: 28600 ± 6960 ng·h/mL; MRT inf [6]: 51.3 ± 11.3 h; clearance [6]: 0.582 mL/min/kg; half-life [6]: 35.58 ± 0.31 h
